Target in one test: not listed separately
Kind of test: Inhibition of tobacco hornworm midgut vacuolar ATPase V1/V0 holoenzyme. Also on record: species or system Manduca sexta.
`CNC(=O)O[C@@H](CC(C)C)c1nc([C@H]2OC(=O)/C(C)=C/C/C(C)=C/[C@@H](O)[C@@H](C)\C=C(C)/C=C(C)\C=C\[C@@H](O)[C@H](C)[C@H](OC)/C(C)=C/C=C/[C@@H]2C)cs1` [ARCHAZOLID A] had an IC50 of 0.6 nmol.

A further test deals with L929. Briefly: Growth inhibition of mouse L929 cells by MTT assay. Format: functional, cell-based. (Formazan colour is commonly taken as a measure of viable cells.)
For the compound `CNC(=O)O[C@@H](CC(C)C)c1nc([C@H]2OC(=O)/C(C)=C/C/C(C)=C/[C@@H](O[Si](C)(C)C(C)(C)C)[C@@H](C)\C=C(C)/C=C(C)\C=C\[C@@H](O)[C@H](C)[C@H](OC)/C(C)=C/C=C/[C@@H]2C)cs1`, the IC50 was 940 nM.
Consider `CNC(=O)O[C@@H](CC(C)C)c1nc([C@H]2OC(=O)/C(C)=C/C/C(C)=C/[C@@H](OC(=O)c3ccc([N+](=O)[O-])cc3)[C@@H](C)\C=C(C)/C=C(C)\C=C\[C@@H](O)[C@H](C)[C@H](OC)/C(C)=C/C=C/[C@@H]2C)cs1`, for which the IC50 came out at 290 nM.
Same read-out and setting: next, `CO[C@@H]1/C(C)=C/C=C/[C@H](C)[C@@H](c2csc([C@@H](O)CC(C)C)n2)OC(=O)/C(C)=C/C/C(C)=C/[C@@H](O)[C@@H](C)\C=C(C)/C=C(C)\C=C\[C@@H](O)[C@@H]1C`: 14 nM.
On the same count and under the same terms, to `CNC(=O)O[C@@H](CC(C)C)c1nc([C@H]2OC(=O)/C(C)=C/C/C(C)=C/[C@@H](O)[C@@H](C)\C=C(C)/C=C(C)\C=C\[C@@H](O)[C@H](C)[C@H](OC)/C(C)=C/C=C/[C@@H]2C)cs1` [ARCHAZOLID A] belongs 0.81 nM.
Same read-out and setting: to `CNC(=O)O[C@@H](CC(C)C)c1nc([C@H]2OC(=O)/C=C/C/C(C)=C/[C@@H](O)[C@@H](C)\C=C(C)/C=C(C)\C=C\[C@@H](O)[C@H](C)[C@H](OC)/C(C)=C/C=C/[C@@H]2C)cs1` [ARCHAZOLID B] belongs 1.1 nM; to `CNC(=O)O[C@@H](CC(C)C)c1nc([C@H]2OC(=O)/C(C)=C/C/C(C)=C/[C@@H](O)[C@@H](C)\C=C(C)/C=C(C)\C=C\C(=O)[C@H](C)[C@H](OC)/C(C)=C/C=C/[C@@H]2C)cs1` [DEHYDROARCHAZOLID], more than 5000 nM.

These data come from ChEMBL document CHEMBL1139107, “Design, synthesis, and biological evaluation of novel analogues of archazolid: a highly potent simplified V-ATPase inhibitor” (Bioorg Med Chem Lett, 2007).
